Columns and labels:
Assay type in all cases: in vivo
Conditions in all cases: 21 days after application
Lolium multiflorum = assay: Further glasshouse test versus other ACCase-inhibiting herbicides, Table B2-1
Description: (§1) Further tests were employed to test the efficacy of a compound of Formula I versus other ACCase-inhibiting herbicides. The five main targets were Lolium multiflorum, Eleusine indica, Digitaria insularis, Sorghum halepense and Echinochloa crus-galli. Collectively, the populations contained all the major target-site resistance mutations affecting ACCase herbicides. Two L. multiflorum (LM-NTSR-1 and LM-NTSR-2) and one E. crus-galli (ECG-NTSR-1) populations were characterised exclusively by non-target-site resistance (“NTSR”). The target-site resistant L. multiflorum and E. indication populations were 100% homozygous for different ACCase mutations whilst the D. insularis, S. halepense and E. crus-galli samples contained a mixture of homozygous wild and mutant individuals at different genotypic frequencies. Additional underlying NTSR cannot be ruled out in the populations characterised by target-site resistance.
(§2) Around 50 seeds of each of the 24 weed populations were sown in 12-cm pots containing a mixture of peat and compost in a 1:1 ratio. The pots were watered, fertilised and kept in controlled glasshouse conditions set at 24° C./16 hr day, 18° C. night, 65% relative humidity, and a photon flux density of approximately 250 μmol quanta m^−2 s^−1 for Lolium multiflorum. The E. indica, D. insularis, S. halepense and E. crus-galli plants were kept in a separate glasshouse bay characterised by a 17 H photoperiod of 180 μmol m^−2 s^−1 with temperatures of 25° C. day and 19° C. night and 65% relative humidity. When the plants were at the two to four-leaf stage, they were treated with the various ACCase-inhibiting herbicides at 0, 15, 30, 60, 120 and 240 g ai ha^−1 in a spray cabinet mounted with a single mobile Teejet flat fan nozzle (11002VS) calibrated to deliver 200 L ha^−1 at 200 kPa. The L. multiflorum populations were treated by a compound of Formula Ic, clodinafop-propargyl, pinoxaden, cycloxydim and clethodim and the warm season grass weeds E. indica, D. insularis, S. halepense and E. crus-galli were sprayed with a Compound Ic and the commonly employed haloxyfop-methyl and clethodim. Three replicate pots were used per population. Plants were assessed for visual damage compared to the untreated control 21 days after application (0=0% damage; 100=100% damage).

Eleusine indica = assay: Further glasshouse test versus other ACCase-inhibiting herbicides, Table B2-2
Description: as §1, §2

Digitaria insularis = assay: Further glasshouse test versus other ACCase-inhibiting herbicides, Table B2-3
Description: as §1, §2

Sorghum halepense = assay: Further glasshouse test versus other ACCase-inhibiting herbicides, Table B2-4
Description: as §1, §2

Echinochloa Crus-galli = assay: Further glasshouse test versus other ACCase-inhibiting herbicides, Table B2-5
Description: as §1, §2

Compound CCCC(=NOCC)C1=C(O)CC(C2CCCSC2)CC1=O (stereo not shown) [Cycloxydim, cycloxydim] has a visual damage (Lolium multiflorum; biotype C2088R, 15 g/ha) of 0%, a visual damage (Lolium multiflorum; biotype C2088R, 30 g/ha) of 0% and a visual damage (Lolium multiflorum; biotype C2088R, 60 g/ha) of 0%. The visual damage (Lolium multiflorum; biotype C2088R, 120 g/ha) was 0%, the visual damage (Lolium multiflorum; biotype C2088R, 240 g/ha) was 0% and the visual damage (Lolium multiflorum; biotype D2078G, 15 g/ha) was 0%. The visual damage (Lolium multiflorum; biotype D2078G, 30 g/ha) was 0%, the visual damage (Lolium multiflorum; biotype D2078G, 60 g/ha) was 0% and the visual damage (Lolium multiflorum; biotype D2078G, 120 g/ha) was 3%. It also gave a visual damage (Lolium multiflorum; biotype D2078G, 240 g/ha) of 7%, a visual damage (Lolium multiflorum; biotype I1781L, 15 g/ha) of 0% and a visual damage (Lolium multiflorum; biotype I1781L, 30 g/ha) of 0%. The visual damage (Lolium multiflorum; biotype I1781L, 60 g/ha) was 7%, the visual damage (Lolium multiflorum; biotype I1781L, 120 g/ha) was 13% and the visual damage (Lolium multiflorum; biotype I1781L, 240 g/ha) was 13%. It also gave a visual damage (Lolium multiflorum; biotype Sensitive, 15 g/ha) of 0%, a visual damage (Lolium multiflorum; biotype Sensitive, 30 g/ha) of 0% and a visual damage (Lolium multiflorum; biotype Sensitive, 60 g/ha) of 0%. For the same compound, the visual damage (Lolium multiflorum; biotype Sensitive, 120 g/ha) was 88%, the visual damage (Lolium multiflorum; biotype Sensitive, 240 g/ha) was 100% and the visual damage (Lolium multiflorum; biotype W1999S, 15 g/ha) was 0%. It also gave a visual damage (Lolium multiflorum; biotype W1999S, 30 g/ha) of 0%, a visual damage (Lolium multiflorum; biotype W1999S, 60 g/ha) of 0% and a visual damage (Lolium multiflorum; biotype W1999S, 120 g/ha) of 0%. The visual damage (Lolium multiflorum; biotype W1999S, 240 g/ha) was 0%, the visual damage (Lolium multiflorum; biotype W2027C, 15 g/ha) was 0% and the visual damage (Lolium multiflorum; biotype W2027C, 30 g/ha) was 0%. The visual damage (Lolium multiflorum; biotype W2027C, 60 g/ha) was 0%, the visual damage (Lolium multiflorum; biotype W2027C, 120 g/ha) was 0% and the visual damage (Lolium multiflorum; biotype W2027C, 240 g/ha) was 50%. It also gave a visual damage (Lolium multiflorum; population LM-NTSR-1 (non-target-site resistance), 15 g/ha) of 0%, a visual damage (Lolium multiflorum; population LM-NTSR-1 (non-target-site resistance), 30 g/ha) of 0% and a visual damage (Lolium multiflorum; population LM-NTSR-1 (non-target-site resistance), 60 g/ha) of 0%. The visual damage (Lolium multiflorum; population LM-NTSR-1 (non-target-site resistance), 120 g/ha) was 3%, the visual damage (Lolium multiflorum; population LM-NTSR-1 (non-target-site resistance), 240 g/ha) was 60% and the visual damage (Lolium multiflorum; population LM-NTSR-2 (non-target-site resistance), 15 g/ha) was 0%. For the same compound, the visual damage (Lolium multiflorum; population LM-NTSR-2 (non-target-site resistance), 30 g/ha) was 0%, the visual damage (Lolium multiflorum; population LM-NTSR-2 (non-target-site resistance), 60 g/ha) was 0% and the visual damage (Lolium multiflorum; population LM-NTSR-2 (non-target-site resistance), 120 g/ha) was 0%. The visual damage (Lolium multiflorum; population LM-NTSR-2 (non-target-site resistance), 240 g/ha) was 0%.

Work on COC(=O)C(C)Oc1ccc(Oc2ncc(C(F)(F)F)cc2Cl)cc1 (stereo not shown) [Haloxyfop-p-methyl, haloxyfop-methyl] yielded a visual damage (Eleusine indica; biotype D2078G, 15 g/ha) of 0%, a visual damage (Eleusine indica; biotype D2078G, 30 g/ha) of 0% and a visual damage (Eleusine indica; biotype D2078G, 60 g/ha) of 60%. It also gave a visual damage (Eleusine indica; biotype D2078G, 120 g/ha) of 95%, a visual damage (Eleusine indica; biotype D2078G, 240 g/ha) of 88% and a visual damage (Eleusine indica; biotype G2096A, 15 g/ha) of 3%. The visual damage (Eleusine indica; biotype G2096A, 30 g/ha) was 3%, the visual damage (Eleusine indica; biotype G2096A, 60 g/ha) was 23% and the visual damage (Eleusine indica; biotype G2096A, 120 g/ha) was 30%. For the same compound, the visual damage (Eleusine indica; biotype G2096A, 240 g/ha) was 53%, the visual damage (Eleusine indica; biotype I2041N, 15 g/ha) was 0% and the visual damage (Eleusine indica; biotype I2041N, 30 g/ha) was 7%. For the same compound, the visual damage (Eleusine indica; biotype I2041N, 60 g/ha) was 0%, the visual damage (Eleusine indica; biotype I2041N, 120 g/ha) was 10% and the visual damage (Eleusine indica; biotype I2041N, 240 g/ha) was 0%. The visual damage (Eleusine indica; biotype Sensitive, 15 g/ha) was 100%, the visual damage (Eleusine indica; biotype Sensitive, 30 g/ha) was 100% and the visual damage (Eleusine indica; biotype Sensitive, 60 g/ha) was 100%. For the same compound, the visual damage (Eleusine indica; biotype Sensitive, 120 g/ha) was 100%, the visual damage (Eleusine indica; biotype Sensitive, 240 g/ha) was 100% and the visual damage (Eleusine indica; biotype W2027C, 15 g/ha) was 0%. For the same compound, the visual damage (Eleusine indica; biotype W2027C, 30 g/ha) was 0%, the visual damage (Eleusine indica; biotype W2027C, 60 g/ha) was 17% and the visual damage (Eleusine indica; biotype W2027C, 120 g/ha) was 30%. It also gave a visual damage (Eleusine indica; biotype W2027C, 240 g/ha) of 33%, a visual damage (Digitaria insularis; biotype Sensitive, 15 g/ha) of 100% and a visual damage (Digitaria insularis; biotype Sensitive, 30 g/ha) of 100%. The visual damage (Digitaria insularis; biotype Sensitive, 60 g/ha) was 100%, the visual damage (Digitaria insularis; biotype Sensitive, 120 g/ha) was 100% and the visual damage (Digitaria insularis; biotype Sensitive, 240 g/ha) was 100%. For the same compound, the visual damage (Digitaria insularis; biotype W2027C, 15 g/ha) was 76%, the visual damage (Digitaria insularis; biotype W2027C, 30 g/ha) was 53% and the visual damage (Digitaria insularis; biotype W2027C, 60 g/ha) was 93%. For the same compound, the visual damage (Digitaria insularis; biotype W2027C, 120 g/ha) was 100%, the visual damage (Digitaria insularis; biotype W2027C, 240 g/ha) was 100% and the visual damage (Sorghum halepense; biotype Sensitive, 15 g/ha) was 93%. It also gave a visual damage (Sorghum halepense; biotype Sensitive, 30 g/ha) of 100%, a visual damage (Sorghum halepense; biotype Sensitive, 60 g/ha) of 100% and a visual damage (Sorghum halepense; biotype Sensitive, 120 g/ha) of 100%. The visual damage (Sorghum halepense; biotype Sensitive, 240 g/ha) was 100%, the visual damage (Sorghum halepense; biotype W2027C, 15 g/ha) was 38% and the visual damage (Sorghum halepense; biotype W2027C, 30 g/ha) was 50%. It also gave a visual damage (Sorghum halepense; biotype W2027C, 60 g/ha) of 68%, a visual damage (Sorghum halepense; biotype W2027C, 120 g/ha) of 68% and a visual damage (Sorghum halepense; biotype W2027C, 240 g/ha) of 78%. The visual damage (Echinochloa Crus-galli; biotype Sensitive, 15 g/ha) was 100%, the visual damage (Echinochloa Crus-galli; biotype Sensitive, 30 g/ha) was 100% and the visual damage (Echinochloa Crus-galli; biotype Sensitive, 60 g/ha) was 100%. The visual damage (Echinochloa Crus-galli; biotype Sensitive, 120 g/ha) was 100%, the visual damage (Echinochloa Crus-galli; biotype Sensitive, 240 g/ha) was 100% and the visual damage (Echinochloa Crus-galli; biotype W2027C, 15 g/ha) was 3%. It also gave a visual damage (Echinochloa Crus-galli; biotype W2027C, 30 g/ha) of 75%, a visual damage (Echinochloa Crus-galli; biotype W2027C, 60 g/ha) of 73% and a visual damage (Echinochloa Crus-galli; biotype W2027C, 120 g/ha) of 100%. It also gave a visual damage (Echinochloa Crus-galli; biotype W2027C, 240 g/ha) of 100%, a visual damage (Echinochloa Crus-galli; population ECG-NTSR-1 (non-target-site resistance), 15 g/ha) of 73% and a visual damage (Echinochloa Crus-galli; population ECG-NTSR-1 (non-target-site resistance), 30 g/ha) of 87%. It also gave a visual damage (Echinochloa Crus-galli; population ECG-NTSR-1 (non-target-site resistance), 60 g/ha) of 100%, a visual damage (Echinochloa Crus-galli; population ECG-NTSR-1 (non-target-site resistance), 120 g/ha) of 100% and a visual damage (Echinochloa Crus-galli; population ECG-NTSR-1 (non-target-site resistance), 240 g/ha) of 100%.

From US20260215428A1, “WEED CONTROL METHOD” (SYNGENTA CROP PROTECTION AG, priority 2023, published 2026)
